According to patent US20050164308A1, “Beta-lactamase CD4+ T-cell epitopes” (priority 2003, published 2005):

Legend:
[1] = tested on: CD4+ T-cells; assay type: cell-based, human; conditions: for effect of the change on the percent of responders to the modified epitope sequence: epitope #49 substitution, 69 donors
[2] = tested on: CD4+ T-cells; assay: I-MUNE assay: proliferation of CD4+ T-cells with differentiated dendritic cells in response to beta-lactamase 15-mer peptides; assay type: cell-based, human
[3] = tested on: HLA-DRB1 and DQB1 antigens; assay: HLA association with responses to epitope peptides; parameters: species or system human
Experimental: HLA-DR and DQ types were analyzed for associations with responses to defined epitope peptides. A Chi-squared analysis, with one degree of freedom was used to determine significance. Where an allele was present in both the responder and non-responder pools, a relative risk was calculated.
The HLA-DR and DQ expression of 65 of the donors tested in both rounds of assay testing described above were assessed using a commercially available PCR-based HLA typing kit (Bio-Synthesis). […] Wherever the HLA antigen was present in both reactive and non-reactive donors, a relative risk (i.e., the increased or decreased likelihood of presenting a reaction conditioned on the presence of the HLA antigen) was computed. […] In addition, the mean and standard error of quantitative response for each peptide were determined.
The magnitude of the proliferative response to an individual peptide in responders and non-responders expressing epitope-associated HLA alleles were also be analyzed. An “individual responder to the peptide” is defined by a stimulation index of greater than 2.95.

## GTTRSYANASIGLFG (variant of SEQ ID NO82) [Peptide L149S, peptide #49 with the substitution L149S]
[1]
  effect on the epitope response rate: had an effect

## tetanus toxoid [reference compound]
[2]; approximately 5 Lf/mL
  positive control proliferative response: robust positive control responses

## #36 (MLDLATYTAGGLPLQ; listed as Enterobacter cloacae)
[3]; donors reactive to the peptide
  quantitative response of DR1+ responders: 7.8
  quantitative response of DR1- responders: 4.42
[2]
  response (percent responders): 12.11%

## #107 (TGGFGSYVAFIPEKQ; listed as Enterobacter cloacae)
[3]; among non-responders
  response of DR13 non-responders lower than the other genotypes: 23%
[3]; donors reactive to the peptide
  increase of quantitative response in DR1+ relative to DR1- responders: 27%
  quantitative response of DR1+ responders: 5.4
  quantitative response of DR1- responders: 4.2
[2]
  response (percent responders): 12.11%

## GTTRLYANASLGLFG (beta-lactamase epitope) [Peptide I155L, peptide #49 with the substitution I155L]
[1]
  effect of the change on the percent of responders to the modified epitope sequence: little effect

## GTTRLYANASVGLFG (beta-lactamase epitope) [Peptide I155V, peptide #49 with the substitution I155V]
[1]
  effect of the change on the percent of responders to the modified epitope sequence: increased the percent of responders

## GTTRLYANASFGLFG (beta-lactamase epitope) [Peptide I155F, peptide #49 with the substitution I155F]
[1]
  effect of the change on the percent of responders to the modified epitope sequence: little effect
